From patent US20240109912A1, “TRICYCLIC PYRIMIDINES AS CYCLIN-DEPENDENT KINASE 7 (CDK7) INHIBITORS” (JANSSEN PHARMACEUTICA NV, priority 2020, published 2024)
Several values for one entry are separate records, joined by “and”; a condition that tells them apart may be missing. Identical values can stand only once. Like-named read-outs stand apart in the source and are kept apart here.

Tests used:
[1] = test system: RNA polymerase II Serine 5 phosphorylation in A549 cells overexpressing CDK7 mutant (C312S); assay: Imaging-based cellular RNA PolII Ser5 phosphorylation assay in A549 cells overexpressing CDK7-mutant (C312S); assay type: cell-based, human; settings: for IC50: Homo sapiens, A549, A549 cells overexpressing CDK7 mutant (C312S), read-out: CDK7_ A549 mutant hCDK7(pIC50) (converted); for CDK7_ A549 mutant hCDK7(pIC50): A549 cells overexpressing CDK7 mutant (C312S)
Protocol: Data were calculated and analyzed in Phaedra.
From this an IC50 value can be obtained.
In parallel this assay was performed in A549 cells overexpressing CDK7-mutant (C312S) to evaluate the effect of the covalent bond on potency and to screen for potential off-target effects. Mutation of Cysteine to Serine (C312S), a less nucleophilic amino acid, prevents CDK7 inhibitors from covalently binding to CDK7 and from inhibiting CDK7 activity in an irreversible manner. A stably transduced A549 cell pool was generated that overexpresses CDK7 mutant (C312S), but also expresses endogenous CDK7-WT. Covalent binders targeting the cysteine at position 312 will show a shift in potency in A549 cells overexpressing mutant C312S CDK7.

[2] = biological target: CDK7/cyclinH/MAT1 trimeric complex (Homo sapiens (Human), UniProt P50613); assay: In vitro CDK7 assay, potency of irreversible covalent inhibitors (kinact/KI)
[3] = test system: RNA polymerase II Serine 5 phosphorylation (CDK7) in A549 cells
From the text: To evaluate inhibition of CDK7 kinase activity, a 384-well automated imaging assay was used. This assay detects Serine 5 phosphorylation on a unique heptapeptide sequence in the C-terminal domain of Rpb1 subunit of RNA polymerase II, the downstream substrate of CDK7. This heptapeptide sequence is repeated up to 52 times in the CTD of Rpb1.
RNA Polymerase II Serine 5 phosphorylation was detected using a specific rabbit Phospho-Rpb1 CTD (Ser5) antibody. A549 adenocarcinoma human alveolar basal epithelial cells were seeded in 20 μl medium (DMEM supplemented with 1% Fetal Bovine Serum (heat inactivated 30′ 56° C.), 2 mM L-glutamine, 50 U/ml penicillin 50 μg/ml streptomycin, 1 mM sodium pyruvate and 50 mM hepes) at 1000 cells/well and cultured in poly-D-lysine coated μclear 384 black plates for 20 hours at 37° C. and 5% CO2.
After incubation cells were challenged with compound for 3 hours at 37° C. and 5% CO2. DMSO was used as high control and as low control 10 μM of the following reference compound was used:
40 nl of test compounds and controls were spotted in cell plates using Echo Liquid Handler (Echo 550, Labcyte). Incubation was followed by 20 minutes fixation with 20 μl 10% formaldehyde at room temperature. Medium/formaldehyde solution was removed, plates were washed 3 times with 30 μl D-PBS (w/o Ca^2+ and Ma^2+) and permeabilization was done by adding 20 μl ice cold methanol for 20 minutes. Cells were washed again 3 times with 30 μl D-PBS and 20 μl blocking buffer (25 ml fetal bovine serum in 500 ml D-PBS) was added for 1 hour.
After removing blocking buffer 20 μl 1/1000 primary antibody rabbit Phospho-Rpb1 CTD (Ser5) antibody was added which binds to the phosphorylated Serine5 of the heptapeptide sequences in the CTD of Rpb1. […] Last, plates were washed 2 times with 30 μl D-PBS and wells were filled with 40 μL D-PBS, plates were sealed (Thermowell sealing tape) and stored at 4° C. until reading. Plates were read with Opera Phenix (Perkin Elmer) with 10× air objective. Data were calculated and analyzed in Phaedra.
IC50 values were calculated using the following formula
Average value of all HC's and all LC's are used for normalizations.
% Effect=100−(sample-LC)/(HC-LC)×100
% Control=(sample/HC)×100
From this an IC50 value can be obtained. An estimate of the slope of the plot in terms of the Hill coefficient is also obtained.

[4] = CDK7 (20 nM enz.) (KI, μM), 20 nM enz.
[5] = read-out: CDK7 (20 nM enz.) (kinact, s^−1), 20 nM enz.
[6] = read-out: CDK7 (20 nM enz.) (kinact/ KI, M^−1*s^−1), 20 nM enz.
[7] = read-out: CDK7 (20 nM enz.) (kobs/[I], M^−1*s^−1), 20 nM enz.

Sequence of CDK7/cyclinH/MAT1 trimeric complex (P50613 whole entry): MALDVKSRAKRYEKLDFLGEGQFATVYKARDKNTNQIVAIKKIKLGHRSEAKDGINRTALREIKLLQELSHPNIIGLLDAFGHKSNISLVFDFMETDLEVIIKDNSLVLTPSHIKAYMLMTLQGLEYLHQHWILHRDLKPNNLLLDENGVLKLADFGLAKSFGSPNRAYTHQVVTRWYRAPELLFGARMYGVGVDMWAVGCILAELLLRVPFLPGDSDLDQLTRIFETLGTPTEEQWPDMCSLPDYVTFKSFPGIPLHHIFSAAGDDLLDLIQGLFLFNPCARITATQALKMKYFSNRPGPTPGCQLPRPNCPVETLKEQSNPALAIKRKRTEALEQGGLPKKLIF
Sequence of CDK7/cyclinH/MAT1 trimeric complex (P51946 whole entry partner): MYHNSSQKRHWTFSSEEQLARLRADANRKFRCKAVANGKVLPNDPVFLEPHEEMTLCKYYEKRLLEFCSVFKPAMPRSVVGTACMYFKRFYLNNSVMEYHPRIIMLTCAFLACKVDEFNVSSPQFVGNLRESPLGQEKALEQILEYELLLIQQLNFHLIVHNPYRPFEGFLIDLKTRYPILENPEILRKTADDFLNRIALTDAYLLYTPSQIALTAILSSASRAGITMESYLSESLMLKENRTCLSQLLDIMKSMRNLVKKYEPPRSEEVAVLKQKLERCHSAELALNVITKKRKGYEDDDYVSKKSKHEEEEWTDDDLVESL
Sequence of CDK7/cyclinH/MAT1 trimeric complex (P51948 whole entry partner): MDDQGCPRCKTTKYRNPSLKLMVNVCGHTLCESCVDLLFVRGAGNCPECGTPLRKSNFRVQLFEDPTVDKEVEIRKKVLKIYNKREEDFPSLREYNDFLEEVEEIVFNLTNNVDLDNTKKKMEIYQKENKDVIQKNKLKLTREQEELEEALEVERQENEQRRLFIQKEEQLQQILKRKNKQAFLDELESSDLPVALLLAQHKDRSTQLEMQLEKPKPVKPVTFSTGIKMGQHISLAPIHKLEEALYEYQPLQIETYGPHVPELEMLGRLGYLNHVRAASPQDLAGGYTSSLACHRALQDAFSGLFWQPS

Structure (SMILES) | IC50 [1] | Ki [2, 4] | kinact [2, 5] | kinact/KI [2, 6] | IC50 [3] | further results
CC#CC(=O)N1CCC(N2CCN(c3cc(C)c4c(c3)Nc3ncnc(N5CCS(=O)(=O)CC5)c3[C@@H](C)O4)CC2)CC1 [compound 154] | > 10 µM | 0.00416 µM | 5.87e-05 s⁻¹ | 14100 M⁻¹ s⁻¹ | ~53.7 nM | –
C=CC(=O)N1CC(N2CCC(c3cc(C)c4c(c3)Nc3ncnc(N5CCC(CCO)C5)c3CO4)CC2)C1 (stereo not shown) [compound 113] | > 10 µM | – | 3.36e-06 s⁻¹ | – | 9120 nM | –
CC#CC(=O)N1CC(N2CCN(c3cc(C)c4c(c3)Nc3ncnc(N5CCS(=O)(=O)CC5)c3[C@@H](C)O4)CC2)C1 [compound 155] | > 10 µM | 0.00172 µM | 2.06e-05 s⁻¹ | 12200 M⁻¹ s⁻¹ | 214 nM | –
C#Cc1cc(C2CCN(C3CN(C(=O)C#CC)C3)CC2)cc2c1O[C@H](C)c1c(ncnc1N1CCS(=O)(=O)CC1)N2 [compound 192] | > 10 µM | 0.856 µM | 8.38e-05 s⁻¹ | 103 M⁻¹ s⁻¹ | 457 nM | –
C=CC(=O)N1CC(N2CCC(c3cc(C)c4c(c3)Nc3ncnc(N5CCS(=N)(=O)CC5)c3CO4)CC2)C1 [compound 72] | 0.832 µM | – | – | – | 138 nM | kinact/KI [2, 7]: 1090 M⁻¹ s⁻¹
C=CC(=O)N1CC[C@H](N2CC(c3cc(F)c4c(c3)Nc3ncnc(N5CCOCC5)c3CO4)C2)C1 (single isomer, unassigned) [compound 54] | > 10 µM | 1.36 µM | 7.77e-05 s⁻¹ | 57.2 M⁻¹ s⁻¹ | 1050 nM | –
C=CC(=O)N1CCC(N2CCC(c3ccc4c(c3)Nc3ncnc(N5CCOCC5)c3CO4)CC2)C(F)C1 (stereo not shown) [compound 15] | > 10 µM | 0.632 µM | 5.72e-05 s⁻¹ | 90.5 M⁻¹ s⁻¹ | 955 nM | –
C=CC(=O)N1CC(N2CCC(c3cc(C)c4c(c3)Nc3ncnc(N5CCC(S(C)(=O)=O)C5)c3CO4)CC2)C1 (stereo not shown) [compound 65] | > 10 µM | 4.12 µM | 0.0001 s⁻¹ | 24.3 M⁻¹ s⁻¹ | 6460 nM | –
C=CC(=O)N1CC[C@@H](N2CC(c3cc4c(c(C)n3)OCc3c(ncnc3N3CCS(=O)(=O)CC3)N4)C2)C1 (single isomer, unassigned) [compound 79] | > 10 µM | 0.189 µM | 3.93e-05 s⁻¹ | 209 M⁻¹ s⁻¹ | 4570 nM | –
C=CC(=O)N1CC(N2CCC(c3cc(F)c4c(c3)Nc3ncnc(N5CCOCC5)c3CO4)CC2)C1 [compound 20] | > 10 µM | 0.0693 µM | 4.85e-05 s⁻¹ | 699 M⁻¹ s⁻¹ | 646 nM | –
C=CC(=O)N1CC(N2CCC(c3cc(C)c4c(c3)Nc3ncnc(N5CCC(C#N)CC5)c3CO4)CC2)C1 [compound 69] | > 10 µM | 1.1 µM | 6.3e-05 s⁻¹ | 57.2 M⁻¹ s⁻¹ | 1580 nM | –
C#Cc1cc(C2CCN(C3CN(C(=O)C=C)C3)CC2)cc2c1O[C@@H](C)c1c(ncnc1N1CCS(=O)(=O)CC1)N2 [compound 190] | > 10 µM | – | – | – | ~50.1 nM and ~40.7 nM | kinact/KI [2, 7]: 839 M⁻¹ s⁻¹
C=CC(=O)N1CC(N2CC[C@H](c3cc4c(c(C)n3)OCc3c(ncnc3N3CCS(=O)(=O)CC3)N4)C2)C1 [compound 31] | > 10 µM | 0.226 µM | 5.87e-05 s⁻¹ | 260 M⁻¹ s⁻¹ | 2750 nM | –
C=CC(=O)N1CC(N2CCC(c3ccc4c(c3)Nc3ncnc(C5CCOCC5)c3CO4)CC2)C1 [compound 38] | > 10 µM | – | – | – | 1150 nM | Ki ([2]; CDK7 (KI(μM)), Table B): 0.251 µM; kinact ([2]; read-out: CDK7 (kinact, s^−1), Table B): 9.7e-05 s⁻¹; kinact/KI ([2]; read-out: CDK7 (kinact/KI, M^−1*s^−1), Table B): 386 M⁻¹ s⁻¹
C=CC(=O)N1CC(N2CCC(c3cc(C)c4c(c3)Nc3ncnc(-c5cncc(OCC)c5)c3CO4)CC2)C1 [compound 82] | > 10 µM | 1.28 µM | 4.27e-05 s⁻¹ | 33.4 M⁻¹ s⁻¹ | 1260 nM | –
C=CC(=O)N1CC(N2CC(c3cc(C)c4c(c3)Nc3ncnc(N5CCS(=N)(=O)CC5)c3CO4)C2)C1 [compound 110] | > 10 µM | 0.0322 µM | 4.3e-05 s⁻¹ | 1330 M⁻¹ s⁻¹ | 813 nM | –
C=CC(=O)N1CC(N2CCC(c3cc(F)c4c(c3)Nc3ncnc(-c5cnn(C)c5)c3CO4)CC2)C1 [compound 21] | > 10 µM | 0.408 µM | 5.42e-05 s⁻¹ | 133 M⁻¹ s⁻¹ | 832 nM | –
C=CC(=O)N1CCC(N2CC(c3cc(F)c4c(c3)Nc3ncnc(N5CCOCC5)c3[C@@H](C)O4)C2)CC1 [compound 27] | > 10 µM | 5.21 µM | 4.89e-05 s⁻¹ | 9.39 M⁻¹ s⁻¹ | 4790 nM | –
C=CC(=O)N1CC(N2CC[C@H](c3cc(C)c4c(c3)Nc3ncnc(N5CCOCC5)c3CO4)C2)C1 [compound 23] | > 10 µM | 0.255 µM | 5.86e-05 s⁻¹ | 230 M⁻¹ s⁻¹ | 603 nM | –

Structure (SMILES) | IC50 [1] | Ki [2, 4] | kinact [2, 5] | kinact/KI [2, 6] | IC50 [3] | further results
CCC#CC(=O)N1CC[C@H](N2CC(c3cc(C)c4c(c3)Nc3ncnc(N5CCS(=O)(=O)CC5)c3[C@@H](C)O4)C2)C1 (single isomer, unassigned) [compound 168] | > 10 µM | – | – | – | 132 nM | –
CC#CC(=O)N1CCN([C@H]2CC[C@H](c3cc(C)c4c(c3)Nc3ncnc(N5CCS(=O)(=O)CC5)c3[C@@H](C)O4)CC2)CC1 [compound 161] | > 10 µM | – | – | – | < 9.77 nM | –
C=CC(=O)N1CC(N2CCC(c3cc(C)c4c(c3)Nc3ncnc(N5CCC(S(C)(=O)=O)CC5)c3CO4)CC2)C1 [compound 70] | > 10 µM | – | – | – | > 10000 nM | –
CC#CC(=O)N1CC(N2C3CCC2CC(c2cc(C)c4c(c2)Nc2ncnc(N5CCS(=O)(=O)CC5)c2[C@@H](C)O4)C3)C1 (mixture of isomers) [compound 182] | 6.03 µM | – | – | – | ~72.4 nM | –
Cc1cc(C2CCN(C3CN(C(=O)C#CC(C)C)C3)CC2)cc2c1O[C@H](C)c1c(ncnc1N1CCS(=O)(=O)CC1)N2 [compound 174] | 7.76 µM | – | – | – | 58.9 nM | –
[2H]C([2H])([2H])C#CC(=O)N1CC[C@@H](N2CC(c3cc(C)c4c(c3)Nc3ncnc(N5CCS(=O)(=O)CC5)c3[C@@H](C)O4)C2)C1 (single isomer, unassigned) [compound 165] | > 10 µM | – | – | – | 105 nM | –
Cc1cc(C2CN([C@@H]3CCN(C(=O)C#CCCN(C)C)C3)C2)cc2c1O[C@H](C)c1c(ncnc1N1CCS(=O)(=O)CC1)N2 (single isomer, unassigned) [compound 177] | 7.24 µM | – | – | – | ~12.9 nM | –
[2H]C([2H])([2H])C#CC(=O)N1CC(N2CCC(c3cc(C)c4c(c3)Nc3ncnc(N5CCS(=O)(=O)CC5)c3[C@@H](C)O4)CC2)C1 [compound 164] | > 10 µM | – | – | – | 53.7 nM | –
Cc1cc(C2CCN(C3(C)CN(C(=O)C#CCCN4CCOCC4)C3)CC2)cc2c1O[C@H](C)c1c(ncnc1N1CCS(=O)(=O)CC1)N2 [compound 180] | > 10 µM | – | – | – | < 9.77 nM | –
CC#CC(=O)N1CCOC([C@H]2C[C@@H](c3cc(C)c4c(c3)Nc3ncnc(N5CCS(=O)(=O)CC5)c3[C@@H](C)O4)C2)C1 (single isomer, unassigned) [compound 187] | > 10 µM | – | – | – | 6170 nM | –
CC#CC(=O)N1CC[C@@](C)(N2CCC(c3cc(C)c4c(c3)Nc3ncnc(N5CCS(=O)(=O)CC5)c3[C@@H](C)O4)CC2)C1 (single isomer, unassigned) [compound 145] | 4.57 µM | – | – | – | ~14.5 nM | –
Cc1cc(C2CCN(C3(C)CN(C(=O)C#CCN(C)C)C3)CC2)cc2c1O[C@H](C)c1c(ncnc1N1CCS(=O)(=O)CC1)N2 [compound 181] | 2.34 µM | – | – | – | 41.7 nM | –
C=CC(=O)N1CC(N2CC(c3cc(C)c4c(c3)Nc3ncnc(-c5cnn(C)c5)c3[C@H](C)O4)C2)C1 (single isomer, unassigned) [compound 108] | > 10 µM | – | – | – | > 10000 nM | –
CC#CC(=O)N1CC(N2CCC(c3cc(C)c4c(c3)Nc3ncnc(N5CCS(=O)(=O)CC5)c3[C@@H](C)O4)CC2)C1 [compound 157] | – | – | – | – | 75.9 nM | CDK7_ A549 mutant hCDK7(pIC50) [1]: 5.12
Cc1cc(C2CN([C@H]3CCN(C(=O)C#CCCN(C)C)C3)C2)cc2c1O[C@H](C)c1c(ncnc1N1CCS(=O)(=O)CC1)N2 (single isomer, unassigned) [compound 176] | 9.12 µM | – | – | – | < 9.77 nM | –
[2H][C@]1(N2CC(c3cc(C)c4c(c3)Nc3ncnc(N5CCS(=O)(=O)CC5)c3[C@@H](C)O4)C2)CCN(C(=O)C#CC)C1 (single isomer, unassigned) [compound 159] | > 10 µM | – | – | – | 178 nM | –
CC#CC(=O)N1CC[C@H](N2CC(c3cc(C)c4c(c3)Nc3ncnc(N5CCS(=O)(=O)CC5)c3[C@@H](C)O4)C2)C1 [compound 142] | – | – | – | – | 355 nM | CDK7_ A549 mutant hCDK7(pIC50) [1]: <5
CC#CC(=O)N1CCC([C@H]2CC[C@@H](c3cc(C)c4c(c3)Nc3ncnc(N5CCS(=O)(=O)CC5)c3[C@@H](C)O4)CC2)CC1 [compound 173] | > 10 µM | – | – | – | > 10000 nM | –
CC#CC(=O)N1CC(N2C3CCC2CC(c2cc(C)c4c(c2)Nc2ncnc(N5CCS(=O)(=O)CC5)c2[C@@H](C)O4)C3)C1 (mixture of isomers) [compound 183] | – | – | – | – | 347 nM | CDK7_ A549 mutant hCDK7(pIC50) [1]: <5
